Molecular target: T1, Arginase (ARG1 enzyme) (Homo sapiens, UniProt P05089)
T1 construct: made in house; host or cells: Escherichia coli
T1 sequence (P05089 1-322): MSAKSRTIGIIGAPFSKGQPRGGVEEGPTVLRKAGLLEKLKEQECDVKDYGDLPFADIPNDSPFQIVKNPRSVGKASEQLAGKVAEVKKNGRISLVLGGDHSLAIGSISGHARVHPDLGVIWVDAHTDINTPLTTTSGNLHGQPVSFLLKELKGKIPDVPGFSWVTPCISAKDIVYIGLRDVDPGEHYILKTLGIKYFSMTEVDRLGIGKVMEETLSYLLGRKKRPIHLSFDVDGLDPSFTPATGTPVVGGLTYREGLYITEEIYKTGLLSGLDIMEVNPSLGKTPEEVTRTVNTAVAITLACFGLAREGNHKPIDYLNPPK
Assay: Arginase Thioornithine Generating Assay (TOGA)
Assay type: biochemical
Settings: 1.88 nM arginase, thioarginine substrate, fluorescence readout
Method: Arginase Thioornithine Generating Assay (TOGA)
Compounds were serially diluted in ten 3-fold steps in DMSO starting from 10 mM DMSO stocks. Compound dilutions or DMSO alone were then dispensed from the dilution plate into a Greiner black 384-well assay plate (catalog #781086) using an Echo 555 acoustic liquid handler (Labcyte).
Arginase protein was recombinantly expressed in Escherichia coli. Purified protein was then diluted in assay buffer (50 mM Tris pH 7.5, 50 mM NaCl, 1 mM manganese chloride, 0.05% bovine serum albumin to obtain a final Arginase concentration of 1.88 nM. Arginase solution (20 μL) or buffer alone (20 μL) were dispensed to wells of the assay plate using a BioRAPTR liquid dispenser (Beckman Coulter). Assay plates containing compound and ARG1 enzyme were incubated at room temperature for 30 minutes. Afterwards, 5 μL of 2.5 mM thioarginine (Cayman Chemicals) in assay buffer were added to each well of the assay plate using a BioRAPTR liquid dispenser. Plates were incubated at room temperature for 60 minutes and reactions were quenched by addition of 15 μL of […] 7-Diethylamine-3-(4-maleimidophenyl)-4-methylcoumarin (Sigma Chemical) in 70% ethanol. Plates were briefly shaken to mix and the fluorescence was measured in an Spectramax plate reader (Molecular Devices) with a 410 nm excitation wavelength and an 490 nm emission wavelength.
Potencies were calculated by […] to the four parameter logistic IC50 equation.

Row | SMILES | IC50
1 | CC(C)[C@](C)(N)C(=O)N[C@H]1CN[C@H](C(=O)O)[C@@H]1CCCB(O)O [Example 47, (2S,3R,4R)-4-((S)-2-amino-2,3-dimethylbutanamido)-3-(3-boronopropyl)pyrrolidine-2-carboxylic acid] | 0.029 µM
2 | N[C@H](C(=O)N[C@H]1CN[C@H](C(=O)O)[C@@H]1CCCB(O)O)C1Cc2ccccc2C1 [Example 48, (2S,3R,4R)-4-((S)-2-amino-2-(2,3-dihydro-1H-inden-2-yl)acetamido)-3-(3-boronopropyl)pyrrolidine-2-carboxylic acid] | 0.002 µM
3 | O=C(N[C@H]1CN[C@H](C(=O)O)[C@@H]1CCCB(O)O)[C@@H]1CCCN1 [Example 49, (2S,3R,4R)-3-(3-boronopropyl)-4-((S)-pyrrolidine-2-carboxamido)pyrrolidine-2-carboxylic acid] | 0.013 µM
4 | CC(=O)N[C@H]1CN[C@H](C(=O)O)[C@@H]1CCCB(O)O [Example 50, (2S,3R,4R)-4-acetamido-3-(3-boronopropyl)pyrrolidine-2-carboxylic acid] | 0.247 µM
5 | C[C@H](N)C(=O)N(C)[C@H]1CN[C@H](C(=O)O)[C@@H]1CCCB(O)O [Example 51, (2S,3S,4R)-4-((S)-2-amino-N-methylpropanamido)-3-(3-boronopropyl)pyrrolidine-2-carboxylic acid] | 0.985 µM
6 | O=C(O)[C@H]1NCCO[C@H]1CCCB(O)O [Example 52, (2S,3S)-2-(3-boronopropyl)morpholine-3-carboxylic acid] | 0.211 µM
7 | O=C(O)[C@@]1(CCO)NCC[C@H]1CCCB(O)O [Example 53, (2S,3R)-3-(3-boronopropyl)-2-(2-hydroxyethyl)pyrrolidine-2-carboxylic acid] | 1.48 µM
8 | CN(C)CC[C@]1(C(=O)O)NCC[C@H]1CCCB(O)O [Example 54, (2S,3R)-3-(3-boronopropyl)-2-(2-(dimethylamino)ethyl)pyrrolidine-2-carboxylic acid] | 0.0315 µM
9 | O=C(O)[C@@]1(CCN2CCCC2)NCC[C@H]1CCCB(O)O [Example 55] | 0.0159 µM
10 | O=C(O)[C@@]1(CCN2CCC2)NCC[C@H]1CCCB(O)O [Example 56] | 0.0208 µM
11 | CN(C)C[C@]1(C(=O)O)NCC[C@H]1CCCB(O)O [Example 58, (2R,3R)-3-(3-boronopropyl)-2-((dimethylamino)methyl)pyrrolidine-2-carboxylic acid] | > 10 µM
12 | O=C(O)[C@@]1(CO)NCC[C@H]1CCCB(O)O [Example 59A, (2R,3R)-3-(3-boronopropyl)-2-(hydroxymethyl)pyrrolidine-2-carboxylic acid] | 0.311 µM
13 | NC[C@@H]1C[C@@H](CCCB(O)O)[C@@H](C(=O)O)N1 [Example 60A, (2S,3R,5S)-5-(aminomethyl)-3-(3-boronopropyl)pyrrolidine-2-carboxylic acid] | 0.0295 µM
14 | NC[C@H]1C[C@H](CCCB(O)O)[C@H](C(=O)O)N1 [Example 60B, (2R,3S,5R)-5-(aminomethyl)-3-(3-boronopropyl)pyrrolidine-2-carboxylic acid] | 1.78 µM
15 | CN(C)C[C@@H]1C[C@@H](CCCB(O)O)[C@@H](C(=O)O)N1 [Example 61, (2S,3R,5S)-3-(3-boronopropyl)-5-((dimethylamino)methyl)pyrrolidine-2-carboxylic acid] | 0.439 µM
16 | CNC[C@@H]1C[C@@H](CCCB(O)O)[C@@H](C(=O)O)N1 [Example 62, (2S,3R,5S)-3-(3-boronopropyl)-5-((methylamino)methyl)pyrrolidine-2-carboxylic acid] | 0.0349 µM
17 | O=C(O)[C@H]1N[C@H](CO)C[C@H]1CCCB(O)O [Example 63, (2S,3R,5S)-3-(3-boronopropyl)-5-(hydroxymethyl)pyrrolidine-2-carboxylic acid] | 0.00771 µM
18 | C[C@@H]1C[C@@H](CCCB(O)O)[C@@H](C(=O)O)N1 [Example 64, (2S,3R,5R)-3-(3-boronopropyl)-5-methylpyrrolidine-2-carboxylic acid] | 0.00662 µM
19 | O=C(O)[C@H]1NC[C@@]1(CO)CCCB(O)O [Example 65, (2S,3S)-3-(3-boronopropyl)-3-(hydroxymethyl)azetidine-2-carboxylic acid] | 0.013 µM
20 | CN1C[C@@](CO)(CCCB(O)O)[C@H]1C(=O)O [Example 66, (2S,3S)-3-(3-boronopropyl)-3-(hydroxymethyl)-1-methylazetidine-2-carboxylic acid] | 0.269 µM
21 | NC[C@@]1(CCCB(O)O)CN[C@@H]1C(=O)O [Example 67, (2S,3S)-3-(aminomethyl)-3-(3-boronopropyl)azetidine-2-carboxylic acid] | 0.008 µM

More lines, now with the values ahead:

Row | IC50 | SMILES
22 | 0.343 µM | CC(C)(O)[C@@]1(CCCB(O)O)CN[C@@H]1C(=O)O [Example 68, (2S,3S)-3-(3-boronopropyl)-3-(2-hydroxypropan-2-yl)azetidine-2-carboxylic acid]
23 | > 10 µM | C[C@@]1(CCCB(O)O)[C@H](O)CN[C@@H]1C(=O)O [Example 69, (2S,3S,4S)-3-(3-boronopropyl)-4-hydroxy-3-methylpyrrolidine-2-carboxylic acid]
24 | 0.083 µM | CC(C)[C@H](N)C(=O)N[C@H]1CN[C@H](C(=O)O)[C@]1(C)CCCB(O)O [Example 70, (2S,3R,4R)-4-((S)-2-amino-3-methylbutanamido)-3-(3-boronopropyl)-3-methylpyrrolidine-2-carboxylic acid]
25 | 0.017 µM | C[C@]1(CCCB(O)O)[C@@H](C(=O)O)NC[C@@H]1N [Example 71, (2S,3R,4R)-4-amino-3-(3-boronopropyl)-3-methylpyrrolidine-2-carboxylic acid]
26 | 0.119 µM | C[C@@]1(CCCB(O)O)CCN[C@]1(C)C(=O)O [Example 72, (2S,3R)-3-(3-boronopropyl)-2,3-dimethylpyrrolidine-2-carboxylic acid]
27 | 0.0486 µM | C[C@H]1N[C@H](C(=O)O)[C@](C)(CCCB(O)O)[C@H]1O [Example 74A, (2S,3S,4R,5R)-3-(3-boronopropyl)-4-hydroxy-3,5-dimethylpyrrolidine-2-carboxylic acid]
28 | > 10 µM | C[C@H]1N[C@H](C(=O)O)[C@](C)(CCCB(O)O)[C@@H]1O [Example 74B]
29 | > 10 µM | CC1(C)N[C@H](C(=O)O)[C@](C)(CCCB(O)O)[C@@H]1O [Example 75]
30 | 0.0177 µM | C[C@]1(CCCB(O)O)[C@@H](C(=O)O)NC[C@@H]1O [Example 76, (2S,3S,4R)-3-(3-boronopropyl)-4-hydroxy-3-methylpyrrolidine-2-carboxylic acid]
31 | 0.085 µM | C[C@@]1(CCCB(O)O)[C@@H](CN)CN[C@@H]1C(=O)O [Example 77, (2S,3R,4S)-4-(aminomethyl)-3-(3-boronopropyl)-3-methylpyrrolidine-2-carboxylic acid]
32 | > 10 µM | CN(C)C[C@H]1CN[C@H](C(=O)O)[C@]1(C)CCCB(O)O [Example 78, (2S,3R,4R)-3-(3-boronopropyl)-4-((dimethylamino)methyl)-3-methylpyrrolidine-2-carboxylic acid]
33 | 0.0663 µM | CNC[C@H]1CN[C@H](C(=O)O)[C@]1(C)CCCB(O)O [Example 79]
34 | 0.0273 µM | C[C@@]1(CCCB(O)O)[C@@H](CO)CN[C@@H]1C(=O)O [Example 80, (2S,3R,4R)-3-(3-boronopropyl)-4-(hydroxymethyl)-3-methylpyrrolidine-2-carboxylic acid]
35 | 0.139 µM | C[C@]1(CCCB(O)O)[C@@H](C(=O)O)NC[C@@H]1C(F)F [Example 81, (2S,3R,4R)-3-(3-boronopropyl)-4-(difluoromethyl)-3-methylpyrrolidine-2-carboxylic acid]
36 | > 10 µM | O=C(O)[C@H]1NC[C@H](O)[C@@H]1CCCB(O)O [Example 82, (2S,3R,4R)-3-(3-boronopropyl)-4-hydroxypyrrolidine-2-carboxylic acid]
37 | 0.0193 µM | O=C(O)[C@H]1NCC[C@@]1(CO)CCCB(O)O [Example 83, (2S,3S)-3-(3-boronopropyl)-3-(hydroxymethyl)pyrrolidine-2-carboxylic acid]
38 | 0.029 µM | O=C(O)[C@H]1NCC[C@]1(CCCB(O)O)C(F)F [Example 84, (2S,3S)-3-(3-boronopropyl)-3-(difluoromethyl)pyrrolidine-2-carboxylic acid]
39 | 0.00718 µM | NC[C@@]1(CCCB(O)O)CCN[C@@H]1C(=O)O [Example 85, (2S,3R)-3-(aminomethyl)-3-(3-boronopropyl)pyrrolidine-2-carboxylic acid]
40 | 0.119 µM | CN(C)C[C@@]1(CCCB(O)O)CCN[C@@H]1C(=O)O [Example 86, (2S,3R)-3-(3-boronopropyl)-3-((dimethylamino)methyl)pyrrolidine-2-carboxylic acid]
41 | 0.007 µM | CNC[C@@]1(CCCB(O)O)CCN[C@@H]1C(=O)O [Example 87, (2S,3R)-3-(3-boronopropyl)-3-((methylamino)methyl)pyrrolidine-2-carboxylic acid]
